Data: patent US5760036A, “Aminediol protease inhibitors” (E. R. Squibb & Sons, Inc., priority 1995, dated 1998)
Where a name gives a salt, the structure may show the parent alone. Read-outs that look alike come from different tables or passages of the source.

How the values were obtained:
[1] = test system: RF strain of HIV (CEM-SS cells); assay: Cell Culture Anti-HIV Activity (cell viability, formazan); assay type: cell-based; details: Human immunodeficiency virus 1, CEM-SS, 144 h, CEM-SS cells, RF strain of HIV, multiplicity of infection 0.04, 6 days at 37° C., 450 nm; read-out: HIV (CEM Cells) IC50
Summary of the method: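 Half-log compound dilutions added to CEM-SS cells (5000/well) carrying HIV RF (MOI 0.04), 6 days, 37° C. Cell protection measured as formazan from tetrazolium, A450. IC50: drug level restoring infected-cell formazan to 50% of the uninfected untreated control.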

HIV protease = molecular target: T1, HIV protease (Human immunodeficiency virus type 1 group M subtype B, UniProt P04585); assay: HIV Protease Assay; assay type: biochemical; details: for HIV Protease % Inhibition at 10 μM: 10 μM inhibitor
T1 construct: and purified protease
Summary of the method: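 At a single final concentration of 10 μM (4% DMSO), inhibitors were added to a 30-minute, 37° C reaction of purified enzyme with 450 μM H2N-Val-Ser-Gln-Asn-(β-naphthyl-alanine)-Pro-Val-Ile-OH at pH 5.5 (sodium acetate, BSA). Hydrolysis was quantified by reverse-phase HPLC with 220 nm detection after acid quench.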

[2] = pH 5.5, 10 μM inhibitor, 4% DMSO, 450 μM substrate, pH 5.5, 30 minutes at 37° C., RP-HPLC, read-out: HIV Protease % Inhibition at 10 μM
[3] = 4% DMSO, 450 μM substrate, pH 5.5, 30 minutes at 37° C., RP-HPLC
[4] = pH 5.5, read-out: HIV Protease % Inhibition at 10 μM

Row | SMILES | inhibition at 10 µM (HIV protease; [2]) | HIV Protease % Inhibition at 10 μM (HIV protease; [3]) | inhibition at 10 µM (HIV protease; [4]) | IC50 [1]
1 | CC(C)(C)OC(=O)N[C@@H](Cc1ccccc1)[C@H](O)CNC[C@@H](O)[C@H](Cc1ccccc1)NC(=O)OC(C)(C)CCCNC(=O)OCc1ccccc1 [Compound 150, [1S-(1R*,2S*)]-[Iminobis[2-hydroxy-1-(phenylmethyl)-3,1-propanediyl)]biscarbamic acid, 1,1-dimethylethyl 1,1-dimethyl-4-[[(phenylmethoxy)carbonyl]amino]butyl ester] | 93% |  |  | > 4 µM
2 | CC(C)[C@H](NC(=O)C(N)Cc1ccccc1O)C(=O)N[C@@H](Cc1ccccc1)[C@H](O)CNC[C@@H](O)[C@H](Cc1ccccc1)NC(=O)OC(C)(C)C (relative stereo) [Compound 211, [1R*,2S*(2S*,3R*)]-N-[3-[[3-[[(1,1-Dimethylethoxy)carbonyl]amino]-2-hydroxy-4-phenylbutyl]amino]-2-hydroxy-1-(phenylmethyl)propyl]-N^2-(2-hydroxyoxyphenylalanyl)-L-valinamide, fumarate (2:3) salt] | 99% |  |  | 0.9 µM
3 | CC(C)OC(=O)N[C@@H](Cc1ccccc1)[C@H](O)CNC[C@@H](O)[C@H](Cc1ccccc1)NC(=O)OC(C)C [Compound 123, [R-(R*,S*)]-[Iminobis[2-hydroxy-1-(phenylmethyl)-3.1-propandiyl]biscarbamic acid, bis(1-methylethyl)ester] | 65% |  |  | 1 µM
4 | CC(C)(C)OC(=O)N[C@@H](Cc1ccccc1)[C@H](O)CNC[C@@H](O)[C@H](Cc1ccccc1)NC(=O)OC1c2ccccc2CC1O (stereo partly drawn) [Compound 148, [1S-(1R*, 2S*)]-[Iminobis[2-hydroxy-1-(phenylmethyl)-3,1-propanediyl)]biscarbamic acid, 1,1-dimethylethyl 2,3-dihydro-2-hydroxy-1H-inden-1-yl ester] |  | 88% |  | 2 µM
5 | CC(C)(C)CC(=O)N[C@@H](Cc1ccccc1)[C@H](O)CNC[C@@H](O)[C@H](Cc1ccccc1)NC(=O)OC(C)(C)C [Compound 60, [1S-[1R*,2S*(2S*,3R*)]]-[3 [[3-[(3,3-Dimethyl-1-oxybutyl)amino]-2-hydroxy-4-phenylbutyl]amino]-2-hydroxy-1-(phenylmethyl)-propyl]carbamic acid, 1,1-dimethylethyl ester] |  |  | 78% | 1.2 µM
6 | CN(CC(O)[C@H](Cc1ccccc1)NC(=O)OC(C)(C)C)C[C@@H](O)[C@H](Cc1ccccc1)NC(=O)OC(C)(C)C (stereo partly drawn) [Compound 198, [1S-[1R*,2S*(3R*)]]-[3-[[3-[[(1,1-Dimethylethoxy)carbonyl]-amino]-2-hydroxy-4-phenylbutyl]-methylamino]-2-hydroxy-1-(phenylmethyl)propyl]-carbamic acid, 1,1-dimethylethyl ester] | 10% |  |  | > 14 µM
7 | CC(C)(C)OC(=O)N[C@@H](Cc1ccccc1)[C@H](O)CNC[C@@H](O)[C@H](Cc1ccccc1)NC(=O)OC(C)(C)CCO [Compound 169, [1S-(1R*,2S*)]-Iminobis[2-hydroxy-1-(phenylmethyl)-3,1-propanediyl]]biscarbamic acid, 1,1-dimethylethyl-3-hydroxy-1,1-dimethylpropyl ester] | 97% |  |  | 0.2 µM
8 | CN(CC(O)C(Cc1ccccc1)NC(=O)OC(C)(C)C)CC(O)C(Cc1ccccc1)NC(=O)OC(C)(C)C (stereo not drawn) [Compound 200, [1S-[1R*,2R*(1R*)]]-[3-[[3-[[(1,1-Dimethylethoxy)carbonyl]-amino]-2-hydroxy-4-phenylbutyl]-methylamino]-2-hydroxy-1-(phenylmethyl)propyl]-carbamic acid, 1,1-dimethylethyl ester] | 5% |  |  | > 15 µM
9 | CC(C)(C)OC(=O)N[C@@H](Cc1ccccc1)[C@H](O)CNC[C@@H](O)[C@H](Cc1ccc2ncccc2c1)NC(=O)OC(C)(C)C [Compound 31, [1S-[1R*,2S*(2S*,3R*)]]-[3-[[3-[[(1,1-Dimethylethoxy)-carbonyl]amino]-2-hydroxy-4-phenylbutyl]amino-2-hydroxy-1-(6-quinolinylmethyl)propyl]carbamic acid, 1,1-dimethylethyl ester] | 100% |  |  | 0.03 µM

Now from value to compound, other results behind:

Row | inhibition at 10 µM (HIV protease; [2]) | HIV Protease % Inhibition at 10 μM (HIV protease; [3]) | inhibition at 10 µM (HIV protease; [4]) | SMILES | IC50 [1]
10 | 99% |  |  | CC(C)(C)OC(=O)N[C@@H](Cc1ccccc1)[C@H](O)CNC[C@@H](O)[C@H](Cc1ccccc1)NC(=O)[C@@H](NC(=O)OCCOc1ccccc1)C(C)(C)C [Compound 326, [S-[1R*,2S*(2S*,3R*)]]-[2,2-Dimethyl-1-[[[3-[[3-[[(1,1-dimethylethoxy)carbonyl]amino]-2-hydroxy-4-phenylbutyl]amino]-2-hydroxy-1-(phenylmethyl)propyl]amino]carbonyl]propyl]carbamic acid, (2-(phenyloxy)ethyl ester] | 0.03 µM
11 | 99% |  |  | CC(C)(C)OC(=O)N[C@@H](Cc1ccccc1)[C@H](O)CNC[C@@H](O)[C@H](Cc1ccccc1)NC(=O)C(O)C(F)(F)F (single isomer, unassigned; isomer a) [Compound 271, [1S-[1R*,2S*(2S*,3R*)]]-[2-Hydroxy-1-(phenylmethyl)-3-[[2-hydroxy-4-phenyl-3-[(3,3,3-trifluoro-2-hydroxy-1-oxopropyl)amino]butyl]amino]-propyl]carbamic acid, 1,1-dimethylethyl ester (isomer A)] | 0.06 µM
12 |  | 97% |  | CC(C)(C)OC(=O)N[C@@H](Cc1ccccc1)[C@H](O)CNC[C@@H](O)[C@H](Cc1ccccc1)NC(=O)C1NC(=O)CC1(C)C (single isomer, unassigned) [Compound 267, [1S-[1R*,2S*(2S*,3R*)]]-[3-[[3-[[(3,3-Dimethyl-5-oxo-2-pyrrolidinyl)carbonyl]amino]-2-hydroxy-4-phenylbutyl]amino]-2-hydroxy-l-(phenylmethyl)propyl]carbamic acid, 1,1-dimethylethyl ester] | 0.18 µM
13 | 98% |  |  | CC(C)(C)OC(=O)N[C@@H](Cc1ccccc1)[C@H](O)CNC[C@@H](O)[C@H](Cc1ccccc1)NC(=O)OC(C)(C)[C@H](O)CO [Compound 228, [1S-(1R*,2S*),(S*)]-[Iminobis[2-hydroxy-1-(phenylmethyl)-3,1-propanediyl]]biscarbamic acid, 2,3-dihydroxy-1,1-dimethylpropyl 1,1-dimethylethyl ester] | 0.7 µM
14 |  |  | 99% | CN1CCN(CCOc2ccc(C[C@H](NC(=O)OC(C)(C)C)[C@H](O)CNC[C@@H](O)[C@H](Cc3ccccc3)NC(=O)OC(C)(C)C)cc2)C1=O [Compound 363, [1S-[1R*,2S*(2S*,3R*)]]-[3-[[3-[[(1,1-Dimethylethoxy)carbonyl]amino]-2-hydroxy-4-[4-[2-(3-methyl-2-oxo-1-imidazolidinyl)-ethoxy]phenyl]butyl]amino]-2-hydroxy-1-(phenylmethyl)propyl]carbamic acid, 1,1-dimethylethyl ester] | 0.04 µM
15 | 100% |  |  | CC(C)(C)OC(=O)N[C@@H](Cc1ccccc1)[C@H](O)CNC[C@@H](O)[C@H](Cc1ccccc1)NC(=O)[C@@H](NC(=O)OCc1cnc2ccccc2n1)C(C)(C)C [Compound 311, [S-[1R*,2S*(2S*,3R*)]]-[2.2-Dimethyl-1-[[[3-[[(1,1-dimethylethoxy)carbonyl]amino]-2-hydroxy-4-phenylbutyl]amino]-2-hydroxy-1-(phenylmethyl)-propyl]aminocarbonyl]propyl]carbamic acid, (2-quinoxalinyl)methyl ester] | 0.05 µM
16 | 98% |  |  | CNC(=O)N[C@H](C(=O)N[C@@H](Cc1ccccc1)[C@H](O)CNC[C@@H](O)[C@H](Cc1ccccc1)NC(=O)OC(C)(C)C)C(C)(C)C (relative stereo) [Compound 263, [1R*,2S*(2S*,3R*)]-N-[3-[[3-[[(1,1-Dimethylethoxy)carbonyl]amino]-2-hydroxy-4-phenylbutyl]amino]-2-hydroxy-1-(phenylmethyl)propyl]-N^2-[(methylamino)carbonyl]-3-methyl-L-valinamide] | 0.34 µM
17 | 99% |  |  | CC(C)[C@H](NC(=O)CO)C(=O)N[C@@H](Cc1ccccc1)[C@H](O)CNC[C@@H](O)[C@H](Cc1ccccc1)NC(=O)OC(C)(C)C (relative stereo) [Compound 259, [1R*, 2S* (2S*, 3R*)]-N-[3-[[3-[[(1,1-Dimethylethoxy)carbonyl]amino]-2-hydroxy-4-phenylbutyl]amino]-2-hydroxy-1-(phenylmetyl)propyl]-N^2-(hydroxyacetyl)-L-valinamide] | 5 µM
18 | 100% |  |  | Cc1ccc(N(C)CCOc2ccc(C[C@H](NC(=O)OC(C)(C)C)[C@H](O)CNC[C@@H](O)[C@H](Cc3ccccc3)NC(=O)OC(C)(C)C)cc2)cc1 [Compound 217, [1S-[1R*,2S*(2S*,3R*)]]-[3-[[3-[[(1,1-Dimethylethoxy)carbonyl]amino]-2-hydroxy-4-[4-[2-methyl(4-methylphen-yl)amino]-ethoxyl]phenyl]butyl]amino]-2-hydroxy-1-(phenylmethyl) propyl]carbamic acid, 1,1-dimethylethyl ester] | 0.48 µM
